# Source: paper PMC4212247 (Neoplasia (New York, N.Y.), 2014)
# Biological target: p70 S6 kinase (S6K1) (Homo sapiens, UniProt P23443)
# Assay: in vitro kinase assay with recombinant S6K1, peptide substrate and […] ATP
# Format: biochemical
# Sequence of p70 S6 kinase (S6K1) (P23443 24-525): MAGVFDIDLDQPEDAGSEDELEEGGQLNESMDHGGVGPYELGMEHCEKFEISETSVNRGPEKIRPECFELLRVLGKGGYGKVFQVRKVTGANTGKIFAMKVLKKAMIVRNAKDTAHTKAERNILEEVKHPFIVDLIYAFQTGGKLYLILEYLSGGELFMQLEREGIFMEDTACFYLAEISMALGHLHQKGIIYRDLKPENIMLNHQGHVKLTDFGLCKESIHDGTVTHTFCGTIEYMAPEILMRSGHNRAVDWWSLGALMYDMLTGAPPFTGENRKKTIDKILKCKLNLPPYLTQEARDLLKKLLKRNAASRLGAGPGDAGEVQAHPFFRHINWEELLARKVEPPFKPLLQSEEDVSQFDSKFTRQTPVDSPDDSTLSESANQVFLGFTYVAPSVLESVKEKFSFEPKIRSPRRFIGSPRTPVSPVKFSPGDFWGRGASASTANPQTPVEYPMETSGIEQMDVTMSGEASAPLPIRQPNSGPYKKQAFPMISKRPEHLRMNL
row,SMILES,IC50 [µM]
1,Cc1oncc1C(=O)Nc1ccc(C(F)(F)F)cc1 [leflunomide],~55
2,C/C(O)=C(\C#N)C(=O)Nc1ccc(C(F)(F)F)cc1 [A77 1726],~80
